Assay results from US12178811B2, “Methods of treating depressive disorders” (priority 2019, dated 2024).
Values joined by “and” are separate entries in the source; they are usually repeats but may differ in a detail not shown here. Equal entries are not always repeated. Where two headings read alike, the source gives them in different places.

Assays:
[1] = Blood and brain collection after forced swim test (total brain-to-plasma ratio); format: in vivo; details: CD-1, brain and plasma, mouse, immediately following the forced swim test, read-out: total brain-to-plasma ratio (B/P ratio)
Method: Blood and Brain Collection: Immediately following the forced swim test, all animals dosed with test article were anesthetized with isoflurane inhalant, and terminal blood collection (˜1 ml) was performed via cardiac puncture into potassium EDTA blood collection tubes (SOP ROD.14.02). Plasma was isolated from whole blood by centrifugation at 3000 rpm at 4° C. for 5 minutes. Once isolated, plasma was placed in cryovials and frozen at −80° C. until shipment for bioanalysis. Following blood collection, animals were decapitated and the whole brain collected as per standard operating procedure (SOP ROD.59). Brains were weighed, flash frozen, and stored at −80° C. until shipment.

male CD-1 mice = assay: Mouse forced swim test; format: in vivo; details: for Latency to Immobility / Time Immobile 0-2 min / Time Immobile 0-6 min / Time Immobile 2-6 min: 30 min pretreatment, individual animals; for Latency to Immobility, Average / Time Immobile 0-2 min, Average / Time Immobile 0-6 min, Average / Time Immobile 2-6 min, Average: group average N = 10
Method: Objective: A study was performed to assess the potential efficacy of Compound A using the mouse forced swim test. The forced swim test is a model of behavioral despair, and is sensitive to detection of various classes of antidepressant drugs (Can et al., The Mouse Forced Swim Test. J. Vis. Exp. 2012 (59), e3638, DOI:10.3791/3638). Study Design: Forty (40) male CD-1 mice received a 1-week period of acclimation to the test facility prior to the commencement of testing (events summarized in Table 1). […] All animal use procedures were performed in accordance with the principles of the Canadian Council on Animal Care (CCAC). Formulation of Compound A: Compound A (99.4% pure) was weighed (no correction for purity) and dissolved in DMSO at 20× the intended final concentration. The 20×DMSO stock solution of Compound A was diluted 20 fold with 0.5% methyl cellulose in water to achieve the final desired concentration. […] The above formulation was kept at room temperature and stirred continuously or vortex mixed prior to each dose administration. Forced swim test: Forty (40) male CD-1 mice received the appropriate dose of the vehicle, test article, or positive control (treatments summarized in Table 3). Following a pre-determined pre-treatment time (Can et al., 2012), animals were gently placed into tall glass cylinders filled with water (20-25° C.). […] The swim test involved scoring the duration of immobility. Over a 6-minute test session, the latency to first immobility was recorded (in seconds). […] Statistical Analysis: The results in Table 4 were tested for significance using T-, univariate, and Dunnett's tests as shown in Tables 5-14.

SMILES: Cc1cc(N2CCc3cc(F)ccc3C2)cc(C)c1NC(=O)CC(C)(C)C [Compound A, N-[4-(6-fluoro-3,4-dihydro-1H-isoquinolin-2-yl)-2,6-dimethylphenyl]-3,3-dimethylbutanamide]
- Kp at 36 min ([1]; 1 mg/kg IP): 2.2
- Kp at 36 min ([1]; 3 mg/kg IP): 2.2
- Latency to Immobility (male CD-1 mice; Compound A 1 mg/kg IP): 77 s and 84 s and 206 s and 100 s and 70 s and 109 s and 144 s and 105 s and 130 s and 80 s
- Time Immobile 0-2 min (male CD-1 mice; Compound A 1 mg/kg IP): 32 sec and 28 sec and 0 sec (3×) and 16 sec and 20 sec (2×) and 4 sec and 7 sec
- Time Immobile 0-6 min (male CD-1 mice; Compound A 1 mg/kg IP): 174 s and 198 s and 33 s and 125 s and 169 s and 196 s and 134 s and 141 s and 170 s
- Time Immobile 2-6 min (male CD-1 mice; Compound A 1 mg/kg IP): 142 s and 170 s and 33 s and 109 s and 149 s and 192 s and 134 s and 189 s and 141 s and 150 s
- Latency to Immobility, Average (male CD-1 mice; Compound A 1 mg/kg IP): 110.5 s
- Time Immobile 0-2 min, Average (male CD-1 mice; Compound A 1 mg/kg IP): 12.7 s
- Time Immobile 0-6 min, Average (male CD-1 mice; Compound A 1 mg/kg IP): 153.6 s
- Time Immobile 2-6 min, Average (male CD-1 mice; Compound A 1 mg/kg IP): 140.9 s
- Latency to Immobility (male CD-1 mice; Compound A 3 mg/kg IP): 135 s and 165 s and 155 s and 86 s and 150 s and 127 s and 192 s and 162 s and 83 s and 105 s
- Time Immobile 0-2 min (male CD-1 mice; Compound A 3 mg/kg IP): 0 sec (7×) and 23 sec and 21 sec and 15 sec
- Time Immobile 0-6 min (male CD-1 mice; Compound A 3 mg/kg IP): 166 s and 144 s and 122 s and 207 s and 82 s and 146 s and 101 s and 90 s and 184 s and 181 s
- Time Immobile 2-6 min (male CD-1 mice; Compound A 3 mg/kg IP): 166 s and 144 s and 122 s and 184 s and 82 s and 146 s and 101 s and 90 s and 163 s
- Latency to Immobility, Average (male CD-1 mice; Compound A 3 mg/kg IP): 136.0 s
- Time Immobile 0-2 min, Average (male CD-1 mice; Compound A 3 mg/kg IP): 5.9 s
- Time Immobile 0-6 min, Average (male CD-1 mice; Compound A 3 mg/kg IP): 142.3 s
- Time Immobile 2-6 min, Average (male CD-1 mice; Compound A 3 mg/kg IP): 136.4 s
- effect in the mouse forced swim test model (in words) (male CD-1 mice; Tables 5-13): statistically significant effects
